According to ChEMBL document CHEMBL4825693, “Discovery of novel N-sulfonamide-tetrahydroisoquinolines as potent retinoic acid receptor-related orphan receptor γt agonists” (Eur J Med Chem, 2021):

What was measured:
[1] = target: T1, Nuclear receptor ROR-gamma (Homo sapiens, UniProt P51449); assay: Agonist activity at human RORgammat LBD expressed in HEK293T cells incubated for 16 to 20 hrs by Gal4-luciferase reporter gene assay; format: cell-based
T1 sequence (P51449 whole entry): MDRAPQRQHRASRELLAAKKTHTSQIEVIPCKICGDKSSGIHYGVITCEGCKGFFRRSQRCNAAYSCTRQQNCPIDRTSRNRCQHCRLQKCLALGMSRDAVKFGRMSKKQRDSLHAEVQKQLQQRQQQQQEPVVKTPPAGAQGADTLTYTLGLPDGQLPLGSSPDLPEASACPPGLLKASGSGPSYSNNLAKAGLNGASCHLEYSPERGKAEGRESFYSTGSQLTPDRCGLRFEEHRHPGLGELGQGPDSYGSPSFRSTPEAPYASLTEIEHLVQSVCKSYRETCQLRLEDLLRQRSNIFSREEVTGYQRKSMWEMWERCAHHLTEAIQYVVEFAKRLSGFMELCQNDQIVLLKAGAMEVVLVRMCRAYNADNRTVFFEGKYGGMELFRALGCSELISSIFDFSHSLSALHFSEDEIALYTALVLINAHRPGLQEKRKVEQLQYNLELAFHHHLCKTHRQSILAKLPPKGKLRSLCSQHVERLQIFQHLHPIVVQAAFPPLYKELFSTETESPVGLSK

[2] = target: T1, Nuclear receptor ROR-gamma; assay: Agonist activity at europium-labeled human RORgammat LBD assessed as induction of XL665-labeled co-activator SRC1 recruitment incubated for 1 hr by dual FRET assay
[3] = target: T2, Nuclear receptor ROR-gamma (Mus musculus) (UniProt P51450); assay: Agonist activity at RORgammat in C57 mouse CD4+ T cells assessed as induction of Th17 cells differentiation by measuring increase in IL17 production measured after 4 days by flow cytometry analysis relative to control; format: cell-based; conditions: CD4+ve Th, filed as agonist, time 4.0 day
T2 sequence (whole entry): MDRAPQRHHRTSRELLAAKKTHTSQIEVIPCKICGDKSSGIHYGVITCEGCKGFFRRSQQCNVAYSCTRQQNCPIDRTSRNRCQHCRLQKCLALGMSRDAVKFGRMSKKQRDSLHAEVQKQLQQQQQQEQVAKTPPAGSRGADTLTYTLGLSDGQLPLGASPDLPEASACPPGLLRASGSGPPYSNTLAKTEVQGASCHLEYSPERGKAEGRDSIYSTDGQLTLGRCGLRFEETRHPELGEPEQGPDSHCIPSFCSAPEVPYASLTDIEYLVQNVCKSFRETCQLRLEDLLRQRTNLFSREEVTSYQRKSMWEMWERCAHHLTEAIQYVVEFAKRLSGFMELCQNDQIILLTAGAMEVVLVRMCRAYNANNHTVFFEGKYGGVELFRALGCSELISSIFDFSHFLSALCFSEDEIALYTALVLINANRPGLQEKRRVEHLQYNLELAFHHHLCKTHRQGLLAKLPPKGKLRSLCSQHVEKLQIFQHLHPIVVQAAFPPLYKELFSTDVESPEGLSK

[4] = target: T3, Nuclear receptor ROR-gamma (Homo sapiens) (UniProt P51449); assay: Inverse agonist activity at europium-labeled human RORgammat LBD assessed as inhibition of XL665-labeled co-activator SRC1 recruitment incubated for 1 hr by dual FRET assay relative to control; conditions: concentration not given here
T3 sequence (whole entry): T1 sequence (P51449 whole entry)

[5] = target: T1, Nuclear receptor ROR-gamma; assay: Inverse agonist activity at europium-labeled human RORgammat LBD assessed as inhibition of XL665-labeled co-activator SRC1 recruitment incubated for 1 hr by dual FRET assay

EC50 [2] | Structure (SMILES) | also measured
21 nM | CC(=O)N1CCN(c2ccc3c(c2)CCN(S(=O)(=O)N(C)Cc2c(F)cccc2Cl)C3)CC1 | EC50 [1]: 190 nM; max activation [3]: 167%
215 nM | CC(=O)N1CCN(c2ccc3c(c2)CCN(S(=O)(=O)N(C)Cc2cccc(C)c2)C3)CC1 | 
 | CC(=O)N1CCN(c2ccc3c(c2)CCN(S(=O)(=O)N(C)Cc2ccc(C(F)(F)F)cc2)C3)CC1 | inhibition [4]: 25.8%; EC50 [5]: 1980 nM
570 nM | CC(=O)N1CCN(c2ccc3c(c2)CCN(S(=O)(=O)N(C)CCCc2ccccc2)C3)CC1 | 
6240 nM | CC(=O)N1CCN(c2ccc3c(c2)CCN(S(=O)(=O)N(C)c2nccc(C(F)(F)F)n2)C3)CC1 | 
546 nM | CC(=O)N1CCN(c2ccc3c(c2)CCN(S(=O)(=O)N(C)Cc2cccc(F)c2)C3)CC1 | 
358 nM | CC(=O)N1CCN(c2ccc3c(c2)CCN(S(=O)(=O)N(C)Cc2ccccc2F)C3)CC1 | 
23 nM | CC(=O)N1CCN(c2ccc3c(c2)CCN(S(=O)(=O)N(C)Cc2c(F)cccc2Cl)C3)[C@H](C)C1 | 
2230 nM | CC(=O)N1CCN(c2ccc3c(c2)CCN(S(=O)(=O)N(C)CCc2ccccc2)C3)CC1 | 
12300 nM | CC(=O)N1CCN(c2ccc3c(c2)CCN(S(=O)(=O)N(C)Cc2ccccn2)C3)CC1 | 
221 nM | CC(=O)N1CCN(c2ccc3c(c2)CCN(S(=O)(=O)N(C)Cc2ccccc2C)C3)CC1 | 
982 nM | CC(=O)N1CCN(c2ccc3c(c2)CCN(S(=O)(=O)N(C)Cc2ccccc2Cl)C3)CC1 | EC50 [1]: 740 nM; max activation [3]: 93%
138 nM | CC(=O)N1CCN(c2ccc3c(c2)CCN(S(=O)(=O)N(C)Cc2cccc(Cl)c2)C3)CC1 | 
 | CC(=O)N1CCN(c2ccc3c(c2)CCCN3S(=O)(=O)N(C)Cc2ccccc2Cl)CC1 | IC50 [5]: 167 nM
560 nM | CC(=O)N1CCN(c2ccc3c(c2)CCN(S(=O)(=O)N(C)Cc2ccccc2)C3)CC1 | 
1020 nM | CC(=O)N1CCN(c2ccc3c(c2)CCN(S(=O)(=O)N(C)Cc2ccc(F)cc2)C3)CC1 | 
148 nM | CC(=O)N1CCN(c2ccc3c(c2)CCN(S(=O)(=O)N(C)Cc2cc(F)ccc2F)C3)CC1 | 
